Our source for the melting point values is a melting point compilation (Tetko et al.).

For orientation: melting point means the temperature of the solid-liquid transition.

`Cc1ccc(S(=O)(=O)N(C)Cc2ccc(N)cc2)cc1` gave a melting point of 155 °C.

With `CC(C)(C)OC(=O)N[C@@H](CSCc1ccccc1)C(=O)O`, the melting point lay within 85 to 88 °C.

`CCCSc1sc(C(=O)OC)c2c1C(=O)CC(C)(C)C2` had a melting point of 95 to 98 °C.

In turn, `CCCN(CCC)S(=O)(=O)c1ccc(C(=O)O)cc1` gave a melting point of 198 °C.

Compound `CC=CCCC=CC` showed a melting point of -76 °C.

Compound `OC(c1ccccc1)c1cccc(C(F)(F)F)c1` (stereo unspecified) came in with a melting point of 63 °C.

`CCCCCC(=O)OCC(COC(=O)CCCCC)OC(=O)CCCCC` returned a melting point of -60 °C.

As to `Cc1cc(C(=O)O)cc(C)c1[N+](=O)[O-]`, the melting point came to 224 °C.

`O=C(O)CCN1C(=O)c2ccccc2C1=O` gave a melting point of 152 °C.

With `CC(=O)N1CCNCC1`, the melting point stood at 32 °C.

Consider `O=c1[nH]nc(-c2ccccc2)c(=S)n1-c1ccc(F)c(Cl)c1`, for which the melting point stood at 138 °C.

In turn, `Brc1ccc2nonc2c1` registered a melting point of 72 to 74 °C.

For `O=Cc1ccc(N2CCCC2)nc1`, the melting point was in the range of 89 to 90 °C.

With `CC1=C(C(=O)OCc2ccccc2)C(c2ccc3c(c2)OCO3)NC(=O)N1` (stereo unspecified), the melting point lay within 158 to 160 °C.

As to `CC(C)[C@@H](NC(=O)OC(C)(C)C)C(=O)O`, the melting point fell in the range of 164 to 165 °C.

In the case of `CC(=Cc1ccc(F)cc1)[N+](=O)[O-]`, the melting point fell in the range of 64 to 67 °C.

`CC(=O)OCC(=O)C1CCC2C3CCC4=CC(=O)CCC4(C)C3CCC12C` (stereo unspecified) gave a melting point of 157 °C.

Regarding `O=Cc1cccc2c1CCOC2=O`, the melting point came out at 140 °C.

Take `O=C(CCl)Oc1ccc([N+](=O)[O-])cc1`: the melting point was 73 to 75 °C.

Compound `OCc1cccc(Cn2cncn2)c1` displayed a melting point of 56 to 59 °C.

Consider `Cc1cc(Cl)c(Cl)cc1Cl`, for which the melting point was 82.4 °C.

For the compound `Nc1cccc(F)c1`, the melting point is -5 °C.

On to `c1ccc(-c2sc(-c3ccccc3)c3ccccc23)cc1`, for which the melting point lay within 114 to 119 °C.

As to `N=C(N)NC(N)=S`, the melting point was found to be 172 °C.

Regarding `C#CC1(O)CCC2C3CCc4cc(OC)ccc4C3CCC21C` (stereo unspecified), the melting point is 150 °C.

As for `O=C1C(=O)c2ccccc2C(Cl)=C1Cl`, the melting point worked out at 184 °C.

In turn, `N#Cc1cccc(CS(=O)(=O)Cl)c1` returned a melting point of 100 to 102 °C.

`c1ccc(Cc2nc3ccccc3[nH]2)cc1` gave a melting point of 187 °C.

The compound `NC(CSc1ncccc1C(F)(F)F)=NO` showed a melting point of 161 to 164 °C.

`C=CCc1cc(Cl)ccc1O` displayed a melting point of 48 °C.

The compound `CC(=O)c1cccc(C(C)=O)n1` registered a melting point of 80 °C.

Regarding `NC(=O)C(Cc1ccc([N+](=O)[O-])cc1)c1ccccc1` (stereo unspecified), the melting point amounted to 176 °C.

`COC(=O)CCc1cc2c(cc1NC(C)=O)NC(=O)CC2` displayed a melting point of 245 °C.

Compound `CCOC(=O)CCC(NP(=O)(OC)C(C)NC(=O)CCCCN1C(=O)c2ccccc2C1=O)C(=O)OCC` (stereo unspecified) gave a melting point of 79 to 82 °C.

`Cc1nn(C)c(Cl)c1S(=O)(=O)Cl` yielded a melting point of 35 °C.

Take `OCc1ccc(Oc2ccccc2)cc1`: the melting point is 55 to 56 °C.

Compound `N#CC1(O)CN2CCC1CC2` (stereo unspecified) registered a melting point of 156 to 159 °C.

`Cc1cc2c(o1)-c1c(oc3ccccc13)CCC2(C)c1ccccc1` (stereo unspecified): the melting point turned out to be 135 °C.

`COc1cc(Cl)nc(N)n1`: the melting point lay within 169 to 176 °C.

As for `O=C1c2ccccc2C(=O)N1CBr`, the melting point was in the range of 149 to 154 °C.

For `Nc1nc(N)nc(-c2cc(Cl)ccc2Cl)n1`, the melting point was found to be 268 °C.

As for `ICc1ccccc1`, the melting point was determined as 24.5 °C.

In turn, `OC[C@H]1O[C@@H](Oc2ccccc2)[C@H](O)[C@@H](O)[C@@H]1O` yielded a melting point of 177 °C.

Consider `CC(=O)N(C(C)=O)c1cc([N+](=O)[O-])c(/C=C/c2ccccc2)c([N+](=O)[O-])c1/C=C/c1ccccc1`, for which the melting point worked out at 175 °C.

`CCC(C#N)CC#N` (stereo unspecified): the melting point was -41 °C.

Consider `O=C(O)C=Cc1c(Cl)cccc1Cl`, for which the melting point was in the range of 192 to 196 °C.

With `O=C(OC(=O)c1ccncc1)c1ccncc1`, the melting point was found to be 133 °C.

`NS(=O)(=O)c1ccc(S(=O)(=O)CCO)cc1` displayed a melting point of 165 °C.

With `CCOC(=O)C(Br)C(=O)OCC`, the melting point was -54 °C.

On to `CN1C2CCC1C(C(=O)O)C(O)C2` (stereo unspecified), for which the melting point was 205 °C.

`COc1ccc2c(CC(=O)O)coc2c1` gave a melting point of 123 to 124 °C.

Compound `C#CCON1C(=O)c2ccccc2C1=O` returned a melting point of 149 to 152 °C.

Turning to `O=C1OC(=O)C2=C1CCCC2`, the melting point was 74 °C.

Take `Cc1ccc(COc2ccc(CC#N)cc2)cc1`: the melting point lay in the range of 121 to 123 °C.

Regarding `O=C(O)C=Cc1ccc(Sc2ccccn2)c([N+](=O)[O-])c1`, the melting point lay within 177 to 178 °C.

As for `C=COCC(CC)CCCC` (stereo unspecified), the melting point was -100 °C.

In turn, `COc1ccc(-c2ccc(S(=O)(=O)NC(C)C(=O)O)cc2)cc1` (stereo unspecified) had a melting point of 179 °C.

For the compound `FC(F)(F)c1cccc(-c2noc(-c3cc(-c4ccccc4)c(C(F)(F)F)s3)n2)c1`, the melting point lay in the range of 95 to 96 °C.

With `O=C(Nc1ccccn1)c1ccccc1Cl`, the melting point fell in the range of 137 to 139 °C.

`O=C(C(C(F)(F)F)C(F)(F)F)N(Cc1ccccc1)Cc1ccccc1` came in with a melting point of 76 °C.

`O=C1C(=C2C=Cc3ccccc3N2)C(=O)c2c1cccc2[N+](=O)[O-]`: the melting point was 360 °C.

Take `CCC(C=C1C(=O)C2(C)CCC1C2(C)C)C(=O)O` (stereo unspecified): the melting point is 118 °C.

Compound `O=C(c1ccccc1)c1ccc(Cl)c(Cl)c1` yielded a melting point of 102 °C.

Turning to `CC(C)(C)SC1(C#N)CC1(C#N)SC(C)(C)C` (stereo unspecified), the melting point amounted to 104 °C.

`CC(C)(C)OC(=O)N1CCC(Oc2ccc([N+](=O)[O-])cc2)CC1` registered a melting point of 99 to 101 °C.

In turn, `CC(C)(C)OC(=O)c1cc2cc3c4c(c2oc1=O)CCCN4CCC3` had a melting point of 171 °C.

`O=C1Nc2c(Cl)ccc(Cl)c2C1=O` came in with a melting point of 251 to 254 °C.

The compound `O=C(CBr)c1ccc(OC(F)F)cc1` had a melting point of 63 to 65 °C.

As for `N#Cc1cc(F)ccc1F`, the melting point lay within 33 to 35 °C.

For `CC(=O)OC1OC(COC(=O)c2ccccc2)C(OC(=O)c2ccccc2)C1OC(=O)c1ccccc1` (stereo unspecified), the melting point is 128 to 130 °C.

In the case of `COc1cc(C=C2SC(=S)N(CNc3ccc([N+](=O)[O-])cc3)C2=O)ccc1O`, the melting point was determined as 195 °C.

As to `COc1cc(C(N)=O)cc(Cl)n1`, the melting point worked out at 186 °C.

Compound `CCCCCCCC(=O)OCCCCC` registered a melting point of -34.8 °C.

For the compound `COc1ccc2[nH]c3c(c2c1)CCNC3C` (stereo unspecified), the melting point stood at 150 °C.

For `CCCCOC(=O)CC`, the melting point is -75 °C.

`CN1CCN2c3ncccc3Cc3ccccc3C2C1` (stereo unspecified) gave a melting point of 115 °C.

In turn, `CC(=O)c1ccccc1NC=O` had a melting point of 65 to 68 °C.

`CC1C(=O)C23C4CC5C(C)(C)CCC(=O)C56COC(CC1C2OC(C)(C)O4)C63` (stereo unspecified) showed a melting point of 252 °C.

`CC(=O)OCCOc1cc(OCCOC(C)=O)c([N+](=O)[O-])cc1[N+](=O)[O-]` showed a melting point of 91 °C.

Compound `FC(F)(F)c1ccnc(S)n1` had a melting point of 161 to 166 °C.

The compound `CCCCC=CC(=O)O` yielded a melting point of -19 °C.

Consider `CSc1nc(O)ns1`, for which the melting point lay within 158 to 160 °C.

Consider `Nc1ncncn1`, for which the melting point fell in the range of 219 to 224 °C.

Take `COc1ccc(P2(=S)Nn3c(nnc3C(F)(F)F)S2)cc1` (stereo unspecified): the melting point is 211 °C.

On to `Brc1ccc(Oc2cc(Br)c(Br)cc2Br)c(Br)c1`, for which the melting point amounted to 82 °C.

For the compound `CON=C(C(=O)O)c1csc(N)n1`, the melting point fell in the range of 176 to 182 °C.

`O=C(O)CCc1cccc(Cl)c1` gave a melting point of 72 to 74 °C.

`COC(=O)c1ccc(C(=O)O)nc1` showed a melting point of 187 to 190 °C.

Turning to `CN1CSC(=S)N(C)C1`, the melting point worked out at 106 °C.

`O=C1C2=C(C(=O)c3ccccc31)C1(CC1)C21CC1` showed a melting point of 103 °C.

`CC1=CC(C)N=N1` (stereo unspecified) returned a melting point of 108 °C.

For the compound `Cc1ccc(-c2ccc(C=CC(=O)c3ccccc3)o2)cc1`, the melting point was in the range of 100 to 101 °C.

For the compound `COC(=O)c1cc(C)on1`, the melting point is 92 °C.

In turn, `Cn1c2ccccc2n2c(=O)c3ccncc3c(C#N)c12` had a melting point of 296 °C.

The compound `CNNC` came in with a melting point of -9 °C.

Consider `Oc1cc(C(F)(F)F)nc2ccc(OC(F)(F)F)cc12`, for which the melting point fell in the range of 229 to 232 °C.

`CCOC(=O)C1CCN(c2ncnc3ccsc23)CC1` yielded a melting point of 64 to 66 °C.

As for `NCc1cc(C(F)(F)F)ccc1N1CCOCC1`, the melting point lay in the range of 31 to 34 °C.

Compound `COc1ccccc1N1CCN(C(=O)c2ccc(N)cc2)CC1` came in with a melting point of 212 to 214 °C.

In turn, `O=C(O)C=C(Br)C(=O)O` returned a melting point of 184 °C.

Regarding `Cn1ccc2c(CO)cccc21`, the melting point is 69 to 71 °C.

`CC(CCC(=O)O)C1CCC2=C3CCC4CC(O)CCC4(C)C3CC(O)C21C` (stereo unspecified) showed a melting point of 172 °C.

As for `O=C(OCC(=O)N1CCCCCC1)c1ccccc1`, the melting point is 108 °C.

Compound `CCCSP(=O)(OCC)SCCC` returned a melting point of 70 °C.

Take `CCOC(=O)C(=Cc1cc(N)cc(C=C(C(=O)OCC)C(=O)OCC)c1)C(=O)OCC`: the melting point was determined as 174 °C.

In the case of `CC(=O)Oc1ccc2c(c1)CCC1C2CCC2(C)C(=O)C(OC(C)=O)CC12` (stereo unspecified), the melting point stood at 180 °C.

In the case of `CCN1C(=O)CSC1=S`, the melting point was found to be 38 °C.

For `CN(C)C(=S)NN`, the melting point lay within 149 to 153 °C.

`CC(=O)n1nc(C(F)(F)F)cc1-c1ccccc1` showed a melting point of 77 °C.

`COc1ccc(-c2ccc(S(=O)(=O)NC(CCSC)C(=O)O)cc2)cc1` (stereo unspecified) registered a melting point of 174 °C.

Compound `Cc1cc2ccccc2oc1=O` had a melting point of 91 °C.
